Assay results taken from patent US10898459B2, “Method of treating chronic kidney disease” (Panion & BF Biotech Inc., priority 2006, dated 2021).

Tests used:
[1] = test system: patients with end stage renal disease (ESRD); experiment: Open-label extension of Phase II study: serum creatinine level; type: in vivo, human; conditions: several patients who received 6 g/day
Description: Glomerular filtration rate (GFR) level correlates with structural kidney damage and is used as a golden standard to measure kidney function. GFR can be estimated by the biomarkers serum creatinine. As renal function deteriorates, kidney lost its function to excrete creatinine effectively and lead to creatinine retention in the body. Therefore, increase of serum creatinine indicates lowering GFR and is an important sign of kidney deterioration.
In an open-label extension of a Phase II clinical study: “randomized, double-blind, placebo-controlled, dose-ranging study of the effects of ferric citrate on serum phosphate in patients with end stage renal disease (ESRD)”, some of the patients were administered 2˜6 g/day of ferric citrate and serum creatinine level was monitored to assess kidney function.

[2] = test system: patients with end stage renal disease (ESRD); conditions: 3 g daily, recent pilot study in ESRD patients; cited from earlier work
[3] = test system: patients with end stage renal disease (ESRD) on hemodialysis; experiment: Treatment-emergent adverse events in the dose-ranging ESRD study; type: in vivo, human
Description: Safety will be monitored by recording adverse events and the results of physical examinations, vital signs and laboratory tests at each study visit.
Objectives: (1) To determine the effect of ferric citrate at doses of 2, 4 and 6 g daily, administered TID (three times a day), for 28 days on serum phosphate (PO4) levels in patients with end stage renal disease (ESRD). (2) To evaluate the safety of ferric citrate at doses of 2, 4, 6 g daily, administered TID, for 28 days in patients with ESRD.
Study Design: Randomized, double-blind, placebo-controlled, dose-ranging study to assess the effect of ferric citrate on serum phosphate concentrations in patients with ESRD on hemodialysis. Patients are assessed at Study Days 14 and 28 for effectiveness as measured by serum phosphate concentrations. Patients who received one or more doses of study medication are also assessed for safety.

## ferric citrate
[1]
  serum creatinine level: trend of decreased serum creatinine level
[2]
  tolerability (GI symptoms): mild, but tolerable GI symptoms
[3]; 2 g/day (N = 33)
  Abdominal Pain (Preferred Term), # Event: 0
  Abdominal Pain (Preferred Term), (%): (0.0) %
  Diarrhea (Preferred Term), # Event: 3
  Diarrhea (Preferred Term), (%): (9.1) %
  GI Disorder, Definitely (relationship), # Event: 0
  GI Disorder, Definitely (relationship), (%): (0.0) %
  GI Disorder, Possibly (relationship), # Event: 3
  GI Disorder, Possibly (relationship), (%): (9.1) %
  GI Disorder, Probably (relationship), # Event: 2
  GI Disorder, Probably (relationship), (%): (6.1) %
  GI Disorders (System Organ Class), # Event: 8
  GI Disorders (System Organ Class), (%): (24.2) %
  GI Disorders, Mild (severity), # Event: 6
  GI Disorders, Mild (severity), (%): (18.2) %
  General Disorders (System Organ Class), # Event: 4
  General Disorders (System Organ Class), (%): (12.1) %
  Infections and Infestations (System Organ Class), # Event: 0
  Infections and Infestations (System Organ Class), (%): (0.0) %
  Skin and SC Tissue Disorders (System Organ Class), # Event: 3
  Skin and SC Tissue Disorders (System Organ Class), (%): (9.1) %
  T#at1 AE, Definitely (relationship), # Event: 0
  T#at1 AE, Definitely (relationship), (%): (0.0) %
  T#at1 AE, Mild (severity), # Event: 13
  T#at1 AE, Mild (severity), (%): (39.4) %
  T#at1 AE, Moderate (severity), # Event: 6
  T#at1 AE, Moderate (severity), (%): (18.2) %
  T#at1 AE, Possibly (relationship), # Event: 5
  T#at1 AE, Possibly (relationship), (%): (15.2) %
  T#at1 AE, Probably (relationship), # Event: 2
  T#at1 AE, Probably (relationship), (%): (6.1) %
  T#at1 AE, Severe (severity), # Event: 0
  T#at1 AE, Severe (severity), (%): (0.0) %
  Total number of subjects with at least one adverse event (T#at1 AE), # Event: 16
  Total number of subjects with at least one adverse event (T#at1 AE), (%): (48.5) %
[3]; 4 g/day (N = 34)
  Abdominal Pain (Preferred Term), # Event: 4
  Abdominal Pain (Preferred Term), (%): (11.8) %
  Diarrhea (Preferred Term), # Event: 1
  Diarrhea (Preferred Term), (%): (2.9) %
  GI Disorder, Definitely (relationship), # Event: 0
  GI Disorder, Definitely (relationship), (%): (0.0) %
  GI Disorder, Possibly (relationship), # Event: 6
  GI Disorder, Possibly (relationship), (%): (17.6) %
  GI Disorder, Probably (relationship), # Event: 2
  GI Disorder, Probably (relationship), (%): (5.9) %
  GI Disorders (System Organ Class), # Event: 10
  GI Disorders (System Organ Class), (%): (29.4) %
  GI Disorders, Mild (severity), # Event: 8
  GI Disorders, Mild (severity), (%): (23.5) %
  General Disorders (System Organ Class), # Event: 2
  General Disorders (System Organ Class), (%): (5.9) %
  Infections and Infestations (System Organ Class), # Event: 3
  Infections and Infestations (System Organ Class), (%): (8.8) %
  Skin and SC Tissue Disorders (System Organ Class), # Event: 0
  Skin and SC Tissue Disorders (System Organ Class), (%): (0.0) %
  T#at1 AE, Definitely (relationship), # Event: 0
  T#at1 AE, Definitely (relationship), (%): (0.0) %
  T#at1 AE, Mild (severity), # Event: 9
  T#at1 AE, Mild (severity), (%): (26.5) %
  T#at1 AE, Moderate (severity), # Event: 3
  T#at1 AE, Moderate (severity), (%): (8.8) %
  T#at1 AE, Possibly (relationship), # Event: 6
  T#at1 AE, Possibly (relationship), (%): (17.6) %
  T#at1 AE, Probably (relationship), # Event: 2
  T#at1 AE, Probably (relationship), (%): (5.9) %
  T#at1 AE, Severe (severity), # Event: 2
  T#at1 AE, Severe (severity), (%): (5.9) %
  Total number of subjects with at least one adverse event (T#at1 AE), # Event: 12
  Total number of subjects with at least one adverse event (T#at1 AE), (%): (35.3) %
[3]; 6 g/day (N = 33)
  Abdominal Pain (Preferred Term), # Event: 2
  Abdominal Pain (Preferred Term), (%): (6.1) %
  Diarrhea (Preferred Term), # Event: 1
  Diarrhea (Preferred Term), (%): (3.0) %
  GI Disorder, Definitely (relationship), # Event: 0
  GI Disorder, Definitely (relationship), (%): (0.0) %
  GI Disorder, Possibly (relationship), # Event: 1
  GI Disorder, Possibly (relationship), (%): (3.0) %
  GI Disorder, Probably (relationship), # Event: 5
  GI Disorder, Probably (relationship), (%): (15.2) %
  GI Disorders (System Organ Class), # Event: 10
  GI Disorders (System Organ Class), (%): (30.3) %
  GI Disorders, Mild (severity), # Event: 9
  GI Disorders, Mild (severity), (%): (27.3) %
  General Disorders (System Organ Class), # Event: 4
  General Disorders (System Organ Class), (%): (12.1) %
  Infections and Infestations (System Organ Class), # Event: 1
  Infections and Infestations (System Organ Class), (%): (3.0) %
  Skin and SC Tissue Disorders (System Organ Class), # Event: 4
  Skin and SC Tissue Disorders (System Organ Class), (%): (12.1) %
  T#at1 AE, Definitely (relationship), # Event: 0
  T#at1 AE, Definitely (relationship), (%): (0.0) %
  T#at1 AE, Mild (severity), # Event: 14
  T#at1 AE, Mild (severity), (%): (42.4) %
  T#at1 AE, Moderate (severity), # Event: 2
  T#at1 AE, Moderate (severity), (%): (6.1) %
  T#at1 AE, Possibly (relationship), # Event: 2
  T#at1 AE, Possibly (relationship), (%): (6.1) %
  T#at1 AE, Probably (relationship), # Event: 5
  T#at1 AE, Probably (relationship), (%): (15.2) %
  T#at1 AE, Severe (severity), # Event: 1
  T#at1 AE, Severe (severity), (%): (3.0) %
  Total number of subjects with at least one adverse event (T#at1 AE), # Event: 17
  Total number of subjects with at least one adverse event (T#at1 AE), (%): (51.5) %
